Key:
[1] = system: E. coli ESBL4 expressing CTX-M-15; test: Broth microdilution MIC, E. coli ESBL4 CTX-M-15; format: cell-based; settings: fixed 4 μg/mL ceftazidime; CAMHB, 16-20 hours at 37° C.
How it was run: (§1)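 Visual MIC readout follows 16-20 h incubation at 37° C. Final compound range spans 32 down to 0.25 μg/ml in two-fold steps, each well also carrying a β-lactam at a static 4 μg/ml, with inoculation done by the CLSI microdilution method in cation-adjusted Mueller Hinton broth.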

[2] = target: T1, VIM-2 metallo-β-lactamase (Class B) (Pseudomonas aeruginosa, UniProt Q9K2N0); test: β-Lactamase inhibition, VIM-2; format: biochemical; settings: nitrocefin 100 μM, 486 nm; 15 min preincubation at 37° C., PBS pH 7.4
T1 construct: made in house; host or cells: E. coli BL21(DE3)
How it was run: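 Metallo-β-lactamase VIM-2 activity was tracked spectrophotometrically at 486 nm with 100 μM nitrocefin over 10 min, following 15 min preincubation with compound at 37 °C; inhibition was calculated per concentration.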

[3] = system: K. pneumoniae A-1797 expressing KPC-2 and VIM-4; test: Broth microdilution MIC, K. pneumoniae A-1797 KPC-2/VIM-4; format: cell-based; settings: fixed 4 μg/mL meropenem; CAMHB, 16-20 hours at 37° C.
How it was run: as §1

[4] = system: E. cloacae 144200 expressing Class C P99 AmpC; test: Broth microdilution MIC, E. cloacae 144200 p99 AmpC; format: cell-based; settings: fixed 4 μg/mL ceftazidime; CAMHB, 16-20 hours at 37° C.
How it was run: as §1

[5] = target: T2, KPC-2 β-lactamase (Class A carbapenemase) (Klebsiella pneumoniae, UniProt Q9F663); test: β-Lactamase inhibition, KPC-2; format: biochemical; settings: imipenem substrate, 300 nm; 15 min preincubation at 37° C., PBS pH 7.4
T2 construct: made in house; host or cells: E. coli BL21(DE3)
How it was run: (§2)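 IC50 is the inhibitor level cutting initial substrate hydrolysis rate by 50% relative to no-inhibitor controls, after 15 min enzyme–inhibitor preincubation at 37 °C. KPC-2 read with imipenem at 300 nm, SHV-5 with cefotaxime at 260 nm; enzymes were untagged, E. coli-expressed, chromatographically purified.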

[6] = target: T3, p99 AmpC β-lactamase (Class C) (Enterobacter cloacae, UniProt P05364); test: β-Lactamase inhibition, p99 AmpC; format: biochemical
T3 construct: made in house; host or cells: E. coli BL21(DE3)

[7] = system: K. pneumoniae 156319 expressing KPC-3; test: Broth microdilution MIC, K. pneumoniae 156319 KPC-3; format: cell-based; settings: fixed 4 μg/mL meropenem; CAMHB, 16-20 hours at 37° C.
How it was run: as §1

[8] = system: P. aeruginosa Ps296 expressing VIM-2; test: Broth microdilution MIC, P. aeruginosa Ps296 VIM-2; format: cell-based; settings: fixed 4 μg/mL meropenem; CAMHB, 16-20 hours at 37° C.
How it was run: as §1

[9] = target: T4, SHV-5 β-lactamase (Class A ESBL) (Klebsiella pneumoniae, UniProt P0A3M1); test: β-Lactamase inhibition, SHV-5; format: biochemical
T4 construct: made in house; host or cells: E. coli BL21(DE3)
How it was run: as §2

[10] = target: T5, OXA-1 β-lactamase (Class D oxacillinase) (Escherichia coli, UniProt P13661); test: β-Lactamase inhibition, OXA-1; format: biochemical; settings: nitrocefin 100 μM, 486 nm; 15 min preincubation at 37° C., PBS pH 7.4
T5 construct: made in house; host or cells: E. coli BL21(DE3)
How it was run: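 Compounds are mixed with purified, untagged recombinant β-lactamase and held 15 min at 37 °C. Substrate is then added: nitrocefin (100 μM final) for OXA-1, imipenem for KPC-2, cefotaxime for SHV-5. Absorbance is followed immediately, and percent inhibition per concentration gives the IC50.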

[11] = system: S. aureus MSSA-7 producing penicillinase PC-1; test: Broth microdilution MIC, S. aureus MSSA-7 PC-1; format: cell-based; settings: fixed 4 μg/mL piperacillin; CAMHB, 16-20 hours at 37° C.
How it was run: as §1

T4 sequence (P0A3M1 22-286): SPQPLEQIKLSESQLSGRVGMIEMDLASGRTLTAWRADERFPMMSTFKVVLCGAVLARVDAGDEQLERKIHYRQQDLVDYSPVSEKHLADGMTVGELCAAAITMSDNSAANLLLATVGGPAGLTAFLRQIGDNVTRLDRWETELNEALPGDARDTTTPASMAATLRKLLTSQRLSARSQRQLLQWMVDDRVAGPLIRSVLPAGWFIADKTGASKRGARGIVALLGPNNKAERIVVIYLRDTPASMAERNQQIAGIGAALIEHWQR
T2 sequence (Q9F663 25-293, looked up): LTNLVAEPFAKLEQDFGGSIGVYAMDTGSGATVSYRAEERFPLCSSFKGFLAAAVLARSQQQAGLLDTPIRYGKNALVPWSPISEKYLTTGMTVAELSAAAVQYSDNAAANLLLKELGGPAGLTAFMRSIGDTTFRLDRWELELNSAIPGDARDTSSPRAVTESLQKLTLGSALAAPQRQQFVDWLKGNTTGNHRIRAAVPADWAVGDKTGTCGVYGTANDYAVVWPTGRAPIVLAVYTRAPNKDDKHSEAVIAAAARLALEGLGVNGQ
T5 sequence (P13661 26-276): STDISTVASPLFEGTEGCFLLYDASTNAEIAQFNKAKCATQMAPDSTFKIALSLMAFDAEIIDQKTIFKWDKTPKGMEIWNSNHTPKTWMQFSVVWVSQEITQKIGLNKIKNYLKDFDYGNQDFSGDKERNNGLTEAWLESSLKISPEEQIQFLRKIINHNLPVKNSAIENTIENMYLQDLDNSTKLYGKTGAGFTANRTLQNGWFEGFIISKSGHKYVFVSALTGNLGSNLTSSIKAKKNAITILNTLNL
T3 sequence (P05364 21-381): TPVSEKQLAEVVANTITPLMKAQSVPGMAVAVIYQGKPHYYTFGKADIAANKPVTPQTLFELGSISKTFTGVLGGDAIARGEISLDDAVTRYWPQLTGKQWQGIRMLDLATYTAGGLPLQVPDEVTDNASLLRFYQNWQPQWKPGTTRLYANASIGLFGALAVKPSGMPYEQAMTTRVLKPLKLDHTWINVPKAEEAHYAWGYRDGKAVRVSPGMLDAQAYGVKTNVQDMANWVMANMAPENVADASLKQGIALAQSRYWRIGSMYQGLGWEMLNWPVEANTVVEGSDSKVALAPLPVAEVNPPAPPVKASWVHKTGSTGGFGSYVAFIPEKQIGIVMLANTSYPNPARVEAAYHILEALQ

Row | SMILES | MIC of example compound in presence of fixed β-lactam: Fixed CAZ, E. coli ESBL4 CTX-M-15 [1] | IC50 [2] | MIC of example compound in presence of fixed β-lactam: Fixed Mero, K. P. A-1797 KPC-2 VIM-4 [3] | MIC of example compound in presence of fixed β-lactam: Fixed CAZ, E. cl. 144200 p99 AmpC [4] | IC50 [5] | IC50 [6] | MIC of example compound in presence of fixed β-lactam: Fixed Mero, K. P. 156319 KPC-3 [7] | MIC of example compound in presence of fixed β-lactam: Fixed Mero, P. aerug. Ps296 VIM-2 [8] | IC50 [9] | IC50 [10] | MIC of example compound in presence of fixed β-lactam: Fixed Pip, S. aureus MSSA-7 PC-1 [11]
1 | NCC1CCCN(CC(=O)N[C@H]2Cc3cccc(C(=O)O)c3OB2O)C1 (stereo partly drawn) [Example 19, 3-[2-(3-Aminomethyl-piperidin-1-yl)-acetylamino]-2-hydroxy-3,4-dihydro-2H-benzo[e][1,2]oxaborinine-8-carboxylic acid] | C (the MIC in the presence of <4 μg/mL of a β-lactamase inhibitor) | 10 to 100 µM | A (an MIC of the fixed β-lactam antibiotic in the presence of >32 μg/mL of a β-lactamase inhibitor) | C (the MIC in the presence of <4 μg/mL of a β-lactamase inhibitor) | 0.1 to 1 µM | < 0.1 µM | B (the MIC in the presence of between 8 and 32 μg/mL of a β-lactamase inhibitor) | A (an MIC of the fixed β-lactam antibiotic in the presence of >32 μg/mL of a β-lactamase inhibitor) | < 0.1 µM | < 0.1 µM | B (the MIC in the presence of between 8 and 32 μg/mL of a β-lactamase inhibitor)
2 | CNC1CCN(CC(=O)N[C@H]2Cc3cccc(C(=O)O)c3OB2O)CC1O (stereo partly drawn) [Example 20, 2-Hydroxy-3-[2-(3-hydroxy-4-methylamino-piperidin-1-yl)-acetylamino]-3,4-dihydro-2H-benzo[e][1,2]oxaborinine-8-carboxylic acid] | C (the MIC in the presence of <4 μg/mL of a β-lactamase inhibitor) | 1 to 10 µM | A (an MIC of the fixed β-lactam antibiotic in the presence of >32 μg/mL of a β-lactamase inhibitor) | C (the MIC in the presence of <4 μg/mL of a β-lactamase inhibitor) | 0.1 to 1 µM | < 0.1 µM | C (the MIC in the presence of <4 μg/mL of a β-lactamase inhibitor) | B (the MIC in the presence of between 8 and 32 μg/mL of a β-lactamase inhibitor) | 0.1 to 1 µM | < 0.1 µM | C (the MIC in the presence of <4 μg/mL of a β-lactamase inhibitor)
3 | COC1CN(CC(=O)N[C@H]2Cc3cccc(C(=O)O)c3OB2O)CCC1N (stereo partly drawn) [Example 21, 3-[2-(4-Amino-3-methoxy-piperidin-1-yl)-acetylamino]-2-hydroxy-3,4-dihydro-2H-benzo[e][1,2]oxaborinine-8-carboxylic acid] | C (the MIC in the presence of <4 μg/mL of a β-lactamase inhibitor) | 1 to 10 µM | A (an MIC of the fixed β-lactam antibiotic in the presence of >32 μg/mL of a β-lactamase inhibitor) | C (the MIC in the presence of <4 μg/mL of a β-lactamase inhibitor) | 0.1 to 1 µM | < 0.1 µM | C (the MIC in the presence of <4 μg/mL of a β-lactamase inhibitor) | B (the MIC in the presence of between 8 and 32 μg/mL of a β-lactamase inhibitor) | < 0.1 µM | < 0.1 µM | C (the MIC in the presence of <4 μg/mL of a β-lactamase inhibitor)
4 | NC1CCN(CCC(=O)N[C@H]2Cc3cccc(C(=O)O)c3OB2O)CC1 [Example 22, 3-[3-(4-Amino-piperidin-1-yl)-propionylamino]-2-hydroxy-3,4-dihydro-2H-benzo[e][1,2]oxaborinine-8-carboxylic acid] | C (the MIC in the presence of <4 μg/mL of a β-lactamase inhibitor) | 1 to 10 µM | A (an MIC of the fixed β-lactam antibiotic in the presence of >32 μg/mL of a β-lactamase inhibitor) | C (the MIC in the presence of <4 μg/mL of a β-lactamase inhibitor) | 0.1 to 1 µM | < 0.1 µM | B (the MIC in the presence of between 8 and 32 μg/mL of a β-lactamase inhibitor) | A (an MIC of the fixed β-lactam antibiotic in the presence of >32 μg/mL of a β-lactamase inhibitor) | 0.1 to 1 µM | 0.1 to 1 µM | C (the MIC in the presence of <4 μg/mL of a β-lactamase inhibitor)
5 | O=C(CCN1CCNCC1)N[C@H]1Cc2cccc(C(=O)O)c2OB1O [Example 23, 2-Hydroxy-3-(3-piperazin-1-yl-propionylamino)-3,4-dihydro-2H-benzo[e][1,2]oxaborinine-8-carboxylic acid] | C (the MIC in the presence of <4 μg/mL of a β-lactamase inhibitor) | 1 to 10 µM | B (the MIC in the presence of between 8 and 32 μg/mL of a β-lactamase inhibitor) | C (the MIC in the presence of <4 μg/mL of a β-lactamase inhibitor) | < 0.1 µM | < 0.1 µM | C (the MIC in the presence of <4 μg/mL of a β-lactamase inhibitor) | B (the MIC in the presence of between 8 and 32 μg/mL of a β-lactamase inhibitor) | < 0.1 µM | < 0.1 µM | C (the MIC in the presence of <4 μg/mL of a β-lactamase inhibitor)
6 | NC1CCN(CC(=O)N[C@H]2Cc3cccc(C(=O)O)c3OB2O)CC1O (stereo partly drawn) [Example 24, 3-[2-(4-Amino-3-hydroxy-piperidin-1-yl)-acetylamino]-2-hydroxy-3,4-dihydro-2H-benzo[e][1,2]oxaborinine-8-carboxylic acid] | C (the MIC in the presence of <4 μg/mL of a β-lactamase inhibitor) | 10 to 100 µM | B (the MIC in the presence of between 8 and 32 μg/mL of a β-lactamase inhibitor) | C (the MIC in the presence of <4 μg/mL of a β-lactamase inhibitor) | 0.1 to 1 µM | < 0.1 µM | B (the MIC in the presence of between 8 and 32 μg/mL of a β-lactamase inhibitor) | B (the MIC in the presence of between 8 and 32 μg/mL of a β-lactamase inhibitor) | 0.1 to 1 µM | 0.1 to 1 µM | C (the MIC in the presence of <4 μg/mL of a β-lactamase inhibitor)

— patent publication US10294248B2, “Beta-lactamase inhibitors” (VenatoRx Pharmaceuticals, Inc., priority 2013, dated 2019)
